Tests used:
[1] = target: CYP2C19 (Homo sapiens, UniProt P33261); assay: Inhibition of CYP2C19 in human liver microsomes at 10 uM using S-mephenytoin 4-hydroxylase as substrate preincubated for 5 mins followed by NADPH regenerating system addition and measured after 15 mins by LC-MS/MS analysis relative to control; format: ADME, Microsome; details: probe S-mephenytoin (S-mephenytoin 4-hydroxylase), time 20 min
[2] = target: T1, UGT1A6 (Homo sapiens, UniProt P19224); assay: Inhibition of UGT1A6 (unknown origin) at 10 uM relative to control
T1 sequence (P19224 whole entry): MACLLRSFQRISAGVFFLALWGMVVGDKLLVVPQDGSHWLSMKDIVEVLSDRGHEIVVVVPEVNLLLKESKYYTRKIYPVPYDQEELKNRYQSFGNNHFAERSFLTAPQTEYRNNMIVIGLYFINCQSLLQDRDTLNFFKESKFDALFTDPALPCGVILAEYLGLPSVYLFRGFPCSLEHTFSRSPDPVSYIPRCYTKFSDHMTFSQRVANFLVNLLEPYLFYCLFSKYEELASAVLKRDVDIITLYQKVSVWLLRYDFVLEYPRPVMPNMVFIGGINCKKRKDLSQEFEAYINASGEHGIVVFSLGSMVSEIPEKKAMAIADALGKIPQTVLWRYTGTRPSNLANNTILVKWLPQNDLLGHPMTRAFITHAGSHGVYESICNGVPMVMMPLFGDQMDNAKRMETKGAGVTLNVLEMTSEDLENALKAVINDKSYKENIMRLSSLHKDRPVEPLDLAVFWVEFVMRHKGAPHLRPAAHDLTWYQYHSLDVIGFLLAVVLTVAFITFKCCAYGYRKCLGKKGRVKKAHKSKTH

[3] = AUCinfinity in Sprague-Dawley rat at 10 mg/kg, po measured after 24 hrs by LCMS analysis; format: ADME, organism-based; details: in vivo
[4] = AUCinfinity in Sprague-Dawley rat at 1 mg/kg, iv measured after 24 hrs by LCMS analysis; format: ADME, organism-based; details: in vivo
[5] = target: CYP2D6 (Homo sapiens, UniProt P10635); assay: Inhibition of CYP2D6 in human liver microsomes at 10 uM using dextromethophan O-demethylase as substrate preincubated for 5 mins followed by NADPH regenerating system addition and measured after 15 mins by LC-MS/MS analysis relative to control; format: ADME, Microsome; details: probe dextromethophan (dextromethophan O-demethylase), time 20 min
[6] = Protein binding in rat plasma; format: ADME, cell-free; details: read-out: PPB (converted)
[7] = Stability in rat plasma assessed as compound remaining after 120 mins; format: ADME, cell-free; details: read-out: Stability
[8] = Cmax in Sprague-Dawley rat at 10 mg/kg, po measured after 24 hrs by LCMS analysis; format: ADME, organism-based; details: in vivo

Sequence of CYP2D6 (P10635 whole entry): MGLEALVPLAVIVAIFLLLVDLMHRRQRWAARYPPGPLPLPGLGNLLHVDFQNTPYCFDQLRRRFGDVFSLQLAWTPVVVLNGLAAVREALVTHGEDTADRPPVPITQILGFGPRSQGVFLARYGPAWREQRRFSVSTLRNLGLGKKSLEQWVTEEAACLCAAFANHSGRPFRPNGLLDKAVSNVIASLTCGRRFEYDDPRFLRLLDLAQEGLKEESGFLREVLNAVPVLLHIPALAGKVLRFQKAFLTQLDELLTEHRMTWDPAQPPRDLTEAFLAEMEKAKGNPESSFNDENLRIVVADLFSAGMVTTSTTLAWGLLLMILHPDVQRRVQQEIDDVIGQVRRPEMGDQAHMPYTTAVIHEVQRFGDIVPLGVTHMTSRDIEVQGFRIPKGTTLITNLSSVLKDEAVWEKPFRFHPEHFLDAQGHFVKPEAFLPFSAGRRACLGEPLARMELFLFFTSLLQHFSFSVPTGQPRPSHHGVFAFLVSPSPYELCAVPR
Sequence of CYP2C19 (P33261 whole entry): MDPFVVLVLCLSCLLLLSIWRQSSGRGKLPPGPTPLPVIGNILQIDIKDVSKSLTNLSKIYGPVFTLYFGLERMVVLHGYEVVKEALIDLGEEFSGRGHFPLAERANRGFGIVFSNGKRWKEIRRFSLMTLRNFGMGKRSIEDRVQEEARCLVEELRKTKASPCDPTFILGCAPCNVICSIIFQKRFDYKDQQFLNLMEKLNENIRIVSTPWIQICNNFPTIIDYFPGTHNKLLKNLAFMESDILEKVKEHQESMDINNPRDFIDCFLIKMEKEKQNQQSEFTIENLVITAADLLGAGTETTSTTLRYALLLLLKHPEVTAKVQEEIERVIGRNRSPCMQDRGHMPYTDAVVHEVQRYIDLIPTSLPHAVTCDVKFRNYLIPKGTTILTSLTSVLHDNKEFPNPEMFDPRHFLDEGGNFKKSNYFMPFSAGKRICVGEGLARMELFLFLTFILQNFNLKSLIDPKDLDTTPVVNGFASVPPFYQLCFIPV

Q: For `Cc1cc(SCc2nnc(-c3ccc(C(F)(F)F)cc3)s2)ccc1OCC(=O)O`, which inhibition at 0.25 h, 10 µM [1] is on record?
A: 0%

Q: What about the inhibition at 10 µM [2] of the same compound?
A: 0%

Q: What about the AUC(0-inf) [3] of the same compound?
A: 109 µM·h

Q: What about the AUC(0-inf) [4] of the same compound?
A: 4.33 µM·h

Q: What about the inhibition at 0.25 h, 10 µM [5] of the same compound?
A: 0%

Q: What about the fraction unbound [6] of the same compound?
A: 0.002

Q: And the remaining at 2 h [7]?
A: 94.3%

Q: What about the Cmax [8] of the same compound?
A: 16.3 µM
